Active and inactive are the calls of the source.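 How the source made its calls: active means more than half of replicate measurements showing over 20% loss of kinase signal relative to plate controls; inconclusive means some but at most half of replicates over 20% loss; inactive means no replicate over 20% signal loss.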

Here are results for 93 compounds from PubChem BioAssay AID463203 (Broad Institute, 2010).

For the experiment, the target named is Glycogen synthase kinase-3 alpha (Homo sapiens) (UniProt P49840). Put plainly: concentration-response blocking of human GSK3A – biochemical, luminescence, cell-free homogeneous, retest, dose response (AID 463203). The note with it: GSK-3 alpha enzyme, ADP-Glo luminescence, 60 min. In general terms: ADP-Glo turns the ADP formed in a reaction into a luminescent signal.
Glycogen synthase kinase-3 alpha (Homo sapiens), sequence (P49840 whole entry, looked up): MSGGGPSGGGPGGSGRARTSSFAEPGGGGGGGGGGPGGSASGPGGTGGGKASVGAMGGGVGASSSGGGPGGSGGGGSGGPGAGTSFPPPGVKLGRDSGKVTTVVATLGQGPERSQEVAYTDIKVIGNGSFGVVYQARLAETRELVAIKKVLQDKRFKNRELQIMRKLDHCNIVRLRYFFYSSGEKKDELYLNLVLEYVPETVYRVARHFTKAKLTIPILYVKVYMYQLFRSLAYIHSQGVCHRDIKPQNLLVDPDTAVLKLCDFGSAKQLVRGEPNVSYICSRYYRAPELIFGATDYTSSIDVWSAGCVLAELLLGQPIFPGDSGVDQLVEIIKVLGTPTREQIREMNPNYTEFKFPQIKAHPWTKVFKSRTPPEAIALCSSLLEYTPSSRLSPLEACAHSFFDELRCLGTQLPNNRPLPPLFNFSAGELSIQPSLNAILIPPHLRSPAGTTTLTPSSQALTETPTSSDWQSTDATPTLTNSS
As a reminder, the AC50 is the concentration at which the activity in the assay is half-maximal. Turning to `COc1ccc(-c2cc(C(F)(F)F)nc(SCC(=O)NCc3cccs3)n2)cc1OC`, the AC50 is > 30 µM (inactive).
In the case of `Fc1ccc(-c2nc3n(n2)Cc2ccccc2-3)cc1`, the AC50 was > 30 µM (inactive).
Then `OCC1OC(n2cnc3c(NCCc4ccccc4)ncnc32)C(O)C1O` (stereo not drawn), with > 30 µM (inactive); and `O=C(CSc1nc2[nH]ncc2c(=O)n1-c1ccccc1Br)NCc1ccccc1Cl`, with > 30 µM (inactive); and `COc1ccc2nc(SCC(=O)Nc3nccs3)[nH]c2c1`, with 7.82 µM.
Regarding `COc1cc(/C=N/NC(=O)CSCc2ccc([N+](=O)[O-])cc2)cc(OC)c1OC`, the AC50 is > 30 µM (inactive).
`CCCC(NS(=O)(=O)c1ccc(OC)cc1)C(=O)O` (stereo not drawn): the AC50 was > 30 µM (inactive).
Regarding `CCC(C)[C@H](NC(=O)NCc1ccccc1Cl)C(=O)OC` (stereo partly drawn), the AC50 is > 30 µM (inactive).
Consider `Fc1cccc(/C=N/Nc2nccnc2Cl)c1`, for which the AC50 is > 30 µM (inactive).
With `Cc1ccc(/C=N/NC(=O)c2nnn(-c3nonc3N)c2CN(C)C)o1`, the AC50 is > 30 µM (inactive).
As for `COC(=O)c1ccc(CSc2ccc3nnc(-c4ccc(OC)cc4)n3n2)o1`, the figure is 17.1 µM; as for `O=C(CSc1nc2nc(-c3cccs3)cc(C(F)(F)F)c2c(=O)[nH]1)Nc1ccc(F)c(F)c1`, > 30 µM (inactive); as for `Cc1ccnc(NC(=O)Cn2c(=O)oc3cc(S(=O)(=O)N4CCCC4)ccc32)c1`, 26.9 µM.
For `CCOC(=O)C1=C(c2ccccc2)Nc2ncnn2C1c1cccc(O)c1` (stereo not drawn), the AC50 was 22.9 µM.
Then `CCOc1ccc(C2C3=C(CCCC3=O)Nc3ccc4ncccc4c32)cc1` (stereo not drawn), with > 30 µM (inactive); and `COc1cccc(-c2nc(-c3ccccc3)[nH]c(=O)c2C#N)c1`, with > 30 µM (inactive).
With `N#Cc1c(C#N)c(-c2ccccc2)n(-c2ccc(C(=O)O)cc2)c1N`, the AC50 is 14.2 µM.
Then `c1cc2[nH]snc2c2nc(C3CC3)nc12`, with 20.8 µM; and `COc1ccc(C(=O)c2sc(Nc3ccccc3)c(C(=O)Nc3ccc(OC)c(OC)c3)c2N)cc1`, with > 30 µM (inactive).
Regarding `COc1ccc(CCNc2nc(C)c(C(C)=O)s2)cc1OC`, the AC50 is > 30 µM (inactive).
As for `Cn1c(=O)c2[nH]c(CNc3ccc(C(=O)O)cc3)nc2n(C)c1=O`, the figure is > 30 µM (inactive).
For the compound `NC1=NC(=O)/C(=C\c2ccco2)S1`, the AC50 was > 30 µM (inactive).
With `CC(=O)c1sc(Nc2cccc(C)c2)nc1C`, the AC50 was > 30 µM (inactive).
Then `COC(=O)c1cnn(C(=O)c2ccccc2Br)c1N`, with > 30 µM (inactive); and `CSc1nc2n(n1)C(c1ccccn1)C1=C(CC(C)(C)CC1=O)N2` (stereo not drawn), with > 30 µM (inactive).
For the compound `O=C1CC(c2cccs2)CC2=C1C(c1ccccc1)n1ncnc1N2` (stereo not drawn), the AC50 is > 30 µM (inactive).
As for `COCCNc1nnc(SCC(=O)NC2CCCCC2)s1`, the figure is > 30 µM (inactive); as for `Cc1ccc(Sc2ccc(NC(=O)CCl)cc2)cc1C`, > 30 µM (inactive); as for `O=C1NC(=Nc2ccccc2)S/C1=C/c1cccs1`, > 30 µM (inactive).
Then `CCOc1c(O)ccc(/C=C2\SC(=S)NC2=O)c1[N+](=O)[O-]`, with 20.8 µM; and `O=C(/C=C/c1cccc2ccccc12)c1ccncc1`, with > 30 µM (inactive); and `CC1CCCN(Cc2c(O)ccc3c2O/C(=C\c2ccco2)C3=O)C1` (stereo not drawn), with 9.29 µM.
For `COCCOC(=O)c1[nH]c2c(c1C)C(=O)CC(c1cc(OC)c(OC)c(OC)c1)C2` (stereo not drawn), the AC50 is > 30 µM (inactive).
As for `COc1cc(/C=C2/NC(=O)NC2=O)cc(Br)c1OCc1cccc(C(=O)O)c1`, the figure is 6.54 µM; as for `CCSc1nc(N)c(C#N)c(-c2ccco2)c1C#N`, > 30 µM (inactive); as for `NS(=O)(=O)c1ccc(Nc2nc(-c3cccnc3)cs2)cc1`, > 30 µM (inactive).
In the case of `N#Cc1c(-c2ccccc2)nc(SCc2ccc(Cl)cc2)[nH]c1=O`, the AC50 was > 30 µM (inactive).
As for `COc1ccc(NC2CC(=O)NC2=O)cc1` (stereo not drawn), the AC50 was > 30 µM (inactive).
Then `COc1ccc(CC(=O)N2CCOCC2)cc1`, with > 30 µM (inactive); and `Cc1ccc(C(=O)c2c(NC(=O)CSc3nnc(N)s3)sc3c2CCCC3)cc1`, with > 30 µM (inactive); and `O=c1[nH]cnc(O)c1N=Nc1ccccc1`, with 9.87 µM.
For `Cc1cccc(NC(=O)c2sc(Cl)nc2-c2ccccc2)c1`, the AC50 was > 30 µM (inactive).
Consider `CCCC(=O)NC(=S)Nc1cccc(C(C)=O)c1`, for which the AC50 is > 30 µM (inactive).
Then `Fc1ccc(Nc2nc(-c3ccncc3)nc3ccccc23)cc1F`, with > 30 µM (inactive); and `C=CCc1cc(/C=N/n2cnnc2)cc(OCC)c1O`, with > 30 µM (inactive).
Regarding `C[n+]1cccc(/C=N/Nc2nc(Cl)c(C#N)c(Cl)c2Cl)c1`, the AC50 was > 30 µM (inactive).
For the compound `COc1ccc(CCNC(=O)CSc2nc3[nH]ncc3c(=O)n2-c2ccccc2OC)cc1OC`, the AC50 is 1.89 µM.
On to `Cc1c(C(=O)N/N=C/c2ccc(O)c(Br)c2)sc(N)c1C#N`, for which the AC50 is 1.02 µM.
As for `COc1ccc(CC(=O)Nc2ccc(-c3cn4ccccc4n3)cc2)cc1OC`, the figure is > 30 µM (inactive); as for `O=c1[nH]c(=O)n(Cc2ccc(F)cc2)c(O)c1C=NCCCn1ccnc1`, > 30 µM (inactive).
As for `CC(C)OC(=O)c1nnn(-c2nonc2N)c1CN1CCCCCC1`, the figure is > 30 µM (inactive); as for `COC(=O)CNc1nc(Cl)nc(NC2CCCCC2)n1`, > 30 µM (inactive).
`COc1ccccc1N1CCN(C(=O)c2cc(-c3ccccc3)on2)CC1`: the AC50 is > 30 µM (inactive).
As for `O=C(NCCN1CCN(Cc2ccccc2Cl)CC1)Nc1ccccc1`, the figure is > 30 µM (inactive); as for `CC(C)COC(=O)N1CCCC1C(=O)Nc1nccs1` (stereo not drawn), > 30 µM (inactive).
For `O=C(Nc1c(C(=O)O)oc2ccc(Br)cc12)c1ccccc1`, the AC50 is 3.44 µM.
Then `Nc1nonc1-n1nnc(C(=O)N/N=C/c2ccco2)c1-c1ccccc1`, with 18.5 µM.
`Cc1cc(OCc2cc(C(=O)O)oc2C)c2c3c(c(=O)oc2c1)CCCC3`: the AC50 is 21.6 µM.
For `CCC(=NCCCO)c1c(O)n(-c2ccc(OC)cc2)c(=O)[nH]c1=O`, the AC50 is > 30 µM (inactive).
As to `CCN=C(NC#N)SCc1c(F)cccc1Cl`, the AC50 was > 30 µM (inactive).
With `COCCNc1nc(N)c([N+](=O)[O-])c(NCc2ccccc2)n1`, the AC50 is 7.15 µM.
As for `CCc1cc2c(N3CCN(c4nnc(CC)s4)CC3)ncnc2s1`, the AC50 is 16 µM.
Then `CCN1C(=O)/C(=C\c2cccs2)C(C(=O)OC)=C1C`, with > 30 µM (inactive).
In the case of `Cc1ccc(/C=C2\C(=O)Nc3ccccc32)o1`, the AC50 is 31.4 µM.
Consider `c1ccc2c3c([nH]c2c1)-c1[nH]ncc1CC3`, for which the AC50 was 25.1 µM.
Then `O=c1[nH]nc(SCCS(=O)(=O)c2ccc(F)cc2)n1-c1ccccc1`, with 22.9 µM.
In the case of `Cc1nc(S/C(=C/c2ccc(-c3ccc(C(=O)O)cc3)o2)C(=O)O)n[nH]1`, the AC50 is 21.4 µM.
Take `CCOC(=O)N1CC=C2C(C#N)=C(N)C(C#N)(C#N)[C@H](c3cccs3)C2C1` (stereo partly drawn): the AC50 was 23.1 µM.
As to `COC1(OC)N=C(NC(=O)Nc2ccccc2)C2(C#N)C(c3ccccc3)C12C#N` (stereo not drawn), the AC50 is > 30 µM (inactive).
Then `CS(=O)(=O)Nc1ccc(-c2ccc(/C=C3\SC(N)=NC3=O)o2)cc1`, with 1.02 µM.
As for `Cc1cc(=O)[nH]c(SCC(=O)O)c1C#N`, the figure is > 30 µM (inactive); as for `C[C@@H]1O[C@@H](O[C@H]2[C@H](O)[C@@H](O)[C@H](Oc3c(-c4ccc(O)c(O)c4)oc4cc(O)cc(O)c4c3=O)O[C@@H]2CO)[C@H](O)[C@H](O)[C@H]1O`, > 30 µM (inactive); as for `CCOC(=O)/C(C#N)=C1/SC(CCO)C(=O)N1c1ccccc1` (stereo not drawn), 13.1 µM.
Then `COc1ccc(-c2cn3cccnc3n2)cc1NC(=O)C(C)C`, with > 30 µM (inactive); and `COc1ccccc1NC(=O)CSc1nnc(-c2ccncc2)o1`, with > 30 µM (inactive); and `CCOC(=O)c1nnn(-c2nonc2N)c1-c1ccccc1Cl`, with 8.37 µM.
As to `O=[N+]([O-])c1ccc(Nc2nc(NC3CCCCC3)nc(N3CCCC3)n2)cc1`, the AC50 is > 30 µM (inactive).
As for `CSc1nc(NCC(C)C)nc(N2CCOCC2)n1`, the figure is > 30 µM (inactive).
As for `O=[N+]([O-])c1ccc(N/N=C/c2ccc(OCc3cccc4ccccc34)cc2)nc1`, the figure is > 30 µM (inactive).
With `Fc1cccc(Nc2ncnc3sccc23)c1`, the AC50 was > 30 µM (inactive).
Take `NC(=O)c1c(NC(=O)C(=O)N2CCOCC2)sc2c1CCC2`: the AC50 was > 30 µM (inactive).
Then `COc1ccc(C2=Nn3c(nnc3-c3ccccc3)SC2)cc1OC`, with > 30 µM (inactive); and `Cc1cccc(Nc2nc(C)cc(C)n2)c1`, with > 30 µM (inactive).
Then `COc1ccccc1NC(=O)CSc1nnc(-c2ccc(C)cc2)o1`, with > 30 µM (inactive); and `CC(C)c1ccc(NC(=O)CSc2n[nH]c(=O)n2-c2ccc3c(c2)OCCO3)cc1`, with > 30 µM (inactive); and `CC(=NCCCn1ccnc1)c1c(O)n(C2CCCCC2)c(=O)[nH]c1=O`, with 6.77 µM.
Then `Cc1cc(C)c2[nH]c(O)c(N=Nc3ccc(C(=O)O)cc3)c2c1`, with > 30 µM (inactive); and `Cc1cc(C)nc(NC(=O)/C=C/c2cccs2)c1`, with > 30 µM (inactive); and `CN1/C(=C\C=C(C#N)C#N)C(C)(C)c2ccccc21`, with > 30 µM (inactive).
`Cc1cccc(N(C)C(=O)C2CCCN2S(=O)(=O)c2cccc3nsnc23)c1` (stereo not drawn): the AC50 is 24.8 µM.
In the case of `COc1cccc(N/C(SC)=C(/C#N)C(N)=O)c1`, the AC50 was 30 µM.
On to `O=C(Nc1cccc(-c2cnc3ccccc3n2)c1)c1ccco1`, for which the AC50 was > 30 µM (inactive).
As for `CC(=O)c1sc(NC(=O)CN2C(=O)C3CCCCC3C2=O)nc1-c1ccccc1` (stereo not drawn), the figure is 8.54 µM.
